The text below walks through data of patent US20220409531A1, “PHARMACEUTICAL DELIVERY DEVICE AND METHOD OF MANUFACTURE” (University of Ulster, priority 2019, published 2022).

A short description of this data set: in vitro pharmaceutical release in simulated gastric fluid and simulated intestinal fluid. The class given is physicochemical. The settings on record: for cumulative release: from the capsule, simulated gastric fluid (pH=1.7) / simulated intestinal fluid (pH=7.4), time not stated; for release kinetics model fit: release from the fibres, in vitro. An excerpt:
FIGS. 7A and 7B illustrate the use of a pharmaceutical delivery device in accordance with an embodiment of the present invention to release two pharmaceuticals at the same time, each with their own unique release profile, in which FIG. 7A is a pharmaceutical release profile of APAP and CM from the various capsule configurations in a simulated gastric fluid (pH=1.7) and a simulated intestinal fluid (pH=7.4), and FIG. 7B is a detailed pharmaceutical release profile for APAP and CM from the composite capsule in the first two hours in a simulated gastric fluid (pH=1.7); and
The capsule sample was immersed into a 100 ml beaker containing 50 mL PBS solution being stirred at 100 rpm. The whole separation process was finished in 169 s and the complete dissolution of PVP finished until 295 s. Also, regulation and controlled movement of each component pharmaceutical layer after separation was achieved by adding Fe3O4 nanoparticles and an external magnetic field. The separated capsule containing the printed outer PCL with embedded Fe3O4 nanoparticles and travel quickly from left to right under an applied external magnet field while the inner layer without any nanoparticles remained stationary (FIG. 5). This travel distance was covered within 3 s at a velocity of 6.7 mm/s. […] This allows for multifunctional uses of the capsule such as for targeted pharmaceutical release using an externally located magnet, and as a magnetic resonance tracer. […] The cumulative release of APAP was more than 90% while the cumulative release of CM was around 70%.

Counter-ions that a name gives are not always drawn.

Regarding `CC(=O)Nc1ccc(O)cc1` [APAP, paracetamol], the cumulative release entry is recorded as “more than 90%” and the “release kinetics model fit” value is recorded as “mostly fit the Higuchi model”. For the same molecule, the release rate comparison entry (first 2 hours in simulated gastric fluid (pH=1.7), composite capsule) is listed as “faster than CM”.

Consider `CN(C)CCC(c1ccc(Cl)cc1)c1ccccn1` (centres unmarked) [CM, chlorpheniramine maleate], for which the cumulative release entry is given as “around 70%” and the “release kinetics model fit” value is given as “mostly fit the Higuchi model”.
